Laboratory results taken from ChEMBL document CHEMBL1151757, “Synthesis, radiosynthesis, and biological evaluation of fluorine-18-labeled 2beta-carbo(fluoroalkoxy)-3beta-(3'-((Z)-2-haloethenyl)phenyl)nortropanes: candidate radioligands for in vivo imaging of the serotonin transporter with positron emission tomography” (J Med Chem, 2008).

Assays:
Midbrain [1] = experiment: Drug uptake in anesthetized cynomolgus monkey brain midbrain after 1.5 mins postinjection; assay type: ADME, organism-based, Macaca fascicularis; design: unit not given here; settings: in vivo, 0.025 h
Thalamus [2] = experiment: Drug uptake in anesthetized cynomolgus monkey brain thalamus after 22.5 mins postinjection; assay type: ADME, organism-based, Macaca fascicularis; design: unit not given here; settings: in vivo, 0.375 h
[3] = Ratio of drug uptake in occipital lobe to cerebellum in anesthetized cynomolgus monkey after 105 mins postinjection; assay type: ADME, organism-based, Macaca fascicularis; settings: in vivo, 1.75 h
[4] = Ratio of drug uptake in medulla to cerebellum in anesthetized cynomolgus monkey after 165 mins postinjection; assay type: ADME, organism-based, Macaca fascicularis; settings: in vivo, 2.75 h
Thalamus [5] = experiment: Drug uptake in anesthetized cynomolgus monkey brain thalamus after 225 mins postinjection; assay type: ADME, organism-based, Macaca fascicularis; design: unit not given here; settings: in vivo, 3.75 h
[6] = Drug uptake in anesthetized cynomolgus monkey brain cerebellum after 9.5 mins postinjection; assay type: ADME, organism-based, Macaca fascicularis; settings: in vivo
[7] = Ratio of drug uptake in frontal lobe to cerebellum in anesthetized cynomolgus monkey after 195 mins postinjection; assay type: ADME, organism-based, Macaca fascicularis; settings: in vivo, 3.25 h
[8] = Ratio of drug uptake in midbrain to cerebellum in anesthetized cynomolgus monkey after 95 mins postinjection; assay type: ADME, organism-based, Macaca fascicularis; settings: in vivo
[9] = Ratio of drug uptake in medulla to cerebellum in anesthetized cynomolgus monkey after 0.5 mins postinjection; assay type: ADME, organism-based, Macaca fascicularis; settings: in vivo
Pons [10] = experiment: Drug uptake in anesthetized cynomolgus monkey brain pons after 65 mins postinjection; assay type: ADME, organism-based, Macaca fascicularis; settings: in vivo
Thalamus [11] = experiment: Drug uptake in anesthetized cynomolgus monkey brain thalamus after 9.5 mins postinjection; assay type: ADME, organism-based, Macaca fascicularis; design: unit not given here; settings: in vivo
[12] = Ratio of drug uptake in frontal lobe to cerebellum in anesthetized cynomolgus monkey after 205 mins postinjection; assay type: ADME, organism-based, Macaca fascicularis; settings: in vivo
[13] = Ratio of drug uptake in caudate to cerebellum in anesthetized cynomolgus monkey after 95 mins postinjection; assay type: ADME, organism-based, Macaca fascicularis; settings: in vivo
Putamen [14] = experiment: Drug uptake in anesthetized cynomolgus monkey brain putamen after 65 mins postinjection; assay type: ADME, organism-based, Macaca fascicularis; design: unit not given here; settings: in vivo
Medulla [15] = experiment: Drug uptake in anesthetized cynomolgus monkey brain medulla after 225 mins postinjection; assay type: ADME, organism-based, Macaca fascicularis; settings: in vivo, 3.75 h
[16] = Drug uptake in anesthetized cynomolgus monkey brain occipital lobe after 27.5 mins postinjection; assay type: ADME, organism-based, Macaca fascicularis; settings: in vivo
[17] = Drug uptake in anesthetized cynomolgus monkey brain frontal lobe after 105 mins postinjection; assay type: ADME, organism-based, Macaca fascicularis; settings: in vivo, 1.75 h
Pons [18] = experiment: Drug uptake in anesthetized cynomolgus monkey brain pons after 75 mins postinjection; assay type: ADME, organism-based, Macaca fascicularis; settings: in vivo, 1.25 h
Midbrain [19] = experiment: Drug uptake in anesthetized cynomolgus monkey brain midbrain after 65 mins postinjection; assay type: ADME, organism-based, Macaca fascicularis; design: unit not given here; settings: in vivo
[20] = Drug uptake in anesthetized cynomolgus monkey brain occipital lobe after 2.5 mins postinjection; assay type: ADME, organism-based, Macaca fascicularis; settings: in vivo
[21] = Ratio of drug uptake in pons to cerebellum in anesthetized cynomolgus monkey after 1.5 mins postinjection; assay type: ADME, organism-based, Macaca fascicularis; settings: in vivo, 0.025 h
Caudate [22] = experiment: Drug uptake in anesthetized cynomolgus monkey brain caudate after 18.5 mins postinjection; assay type: ADME, organism-based, Macaca fascicularis, Caudate nucleus; settings: in vivo
Caudate [23] = experiment: Drug uptake in anesthetized cynomolgus monkey brain caudate after 125 mins postinjection; assay type: ADME, organism-based, Macaca fascicularis, Caudate nucleus; settings: in vivo
[24] = Ratio of drug uptake in caudate to cerebellum in anesthetized cynomolgus monkey after 9.5 mins postinjection; assay type: ADME, organism-based, Macaca fascicularis; settings: in vivo
Caudate [25] = experiment: Drug uptake in anesthetized cynomolgus monkey brain caudate after 75 mins postinjection; assay type: ADME, organism-based, Macaca fascicularis, Caudate nucleus; settings: in vivo, 1.25 h
Caudate [26] = experiment: Drug uptake in anesthetized cynomolgus monkey brain caudate after 22.5 mins postinjection; assay type: ADME, organism-based, Macaca fascicularis, Caudate nucleus; settings: in vivo, 0.375 h
[27] = Ratio of drug uptake in occipital lobe to cerebellum in anesthetized cynomolgus monkey after 12.5 mins postinjection; assay type: ADME, organism-based, Macaca fascicularis; settings: in vivo
Caudate [28] = experiment: Drug uptake in anesthetized cynomolgus monkey brain caudate after 12.5 mins postinjection; assay type: ADME, organism-based, Macaca fascicularis, Caudate nucleus; settings: in vivo
Caudate [29] = experiment: Drug uptake in anesthetized cynomolgus monkey brain caudate after 55 mins postinjection; assay type: ADME, organism-based, Macaca fascicularis, Caudate nucleus; settings: in vivo
[30] = Ratio of drug uptake in pons to cerebellum in anesthetized cynomolgus monkey after 0.5 mins postinjection; assay type: ADME, organism-based, Macaca fascicularis; settings: in vivo
[31] = Drug uptake in anesthetized cynomolgus monkey brain cerebellum after 35 mins postinjection; assay type: ADME, organism-based, Macaca fascicularis; settings: in vivo
[32] = Drug uptake in anesthetized cynomolgus monkey brain frontal lobe after 0.5 mins postinjection; assay type: ADME, organism-based, Macaca fascicularis; settings: in vivo
Caudate [33] = experiment: Drug uptake in anesthetized cynomolgus monkey brain caudate after 45 mins postinjection; assay type: ADME, organism-based, Macaca fascicularis, Caudate nucleus; settings: in vivo, 0.75 h
[34] = Drug uptake in anesthetized cynomolgus monkey brain frontal lobe after 12.5 mins postinjection; assay type: ADME, organism-based, Macaca fascicularis; settings: in vivo
Medulla [35] = experiment: Drug uptake in anesthetized cynomolgus monkey brain medulla after 12.5 mins postinjection; assay type: ADME, organism-based, Macaca fascicularis; settings: in vivo
[36] = Drug uptake in anesthetized cynomolgus monkey brain cerebellum after 165 mins postinjection; assay type: ADME, organism-based, Macaca fascicularis; settings: in vivo, 2.75 h
[37] = Ratio of drug uptake in caudate to cerebellum in anesthetized cynomolgus monkey after 65 mins postinjection; assay type: ADME, organism-based, Macaca fascicularis; settings: in vivo
[38] = Ratio of drug uptake in putamen to cerebellum in anesthetized cynomolgus monkey after 75 mins postinjection; assay type: ADME, organism-based, Macaca fascicularis; settings: in vivo, 1.25 h
Midbrain [39] = experiment: Drug uptake in anesthetized cynomolgus monkey brain midbrain after 195 mins postinjection; assay type: ADME, organism-based, Macaca fascicularis; settings: in vivo, 3.25 h
Midbrain [40] = experiment: Drug uptake in anesthetized cynomolgus monkey brain midbrain after 27.5 mins postinjection; assay type: ADME, organism-based, Macaca fascicularis; design: unit not given here; settings: in vivo
Medulla [41] = experiment: Drug uptake in anesthetized cynomolgus monkey brain medulla after 2.5 mins postinjection; assay type: ADME, organism-based, Macaca fascicularis; settings: in vivo
[42] = Ratio of drug uptake in frontal lobe to cerebellum in anesthetized cynomolgus monkey after 135 mins postinjection; assay type: ADME, organism-based, Macaca fascicularis; settings: in vivo, 2.25 h
[43] = Drug uptake in anesthetized cynomolgus monkey brain occipital lobe after 55 mins postinjection; assay type: ADME, organism-based, Macaca fascicularis; settings: in vivo
[44] = Drug uptake in anesthetized cynomolgus monkey brain occipital lobe after 215 mins postinjection; assay type: ADME, organism-based, Macaca fascicularis; settings: in vivo
Putamen [45] = experiment: Drug uptake in anesthetized cynomolgus monkey brain putamen after 27.5 mins postinjection; assay type: ADME, organism-based, Macaca fascicularis; design: unit not given here; settings: in vivo
[46] = Drug uptake in anesthetized cynomolgus monkey brain occipital lobe after 75 mins postinjection; assay type: ADME, organism-based, Macaca fascicularis; settings: in vivo, 1.25 h
Pons [47] = experiment: Drug uptake in anesthetized cynomolgus monkey brain pons after 85 mins postinjection; assay type: ADME, organism-based, Macaca fascicularis; settings: in vivo
[48] = Ratio of drug uptake in midbrain to cerebellum in anesthetized cynomolgus monkey after 135 mins postinjection; assay type: ADME, organism-based, Macaca fascicularis; settings: in vivo, 2.25 h
Pons [49] = experiment: Drug uptake in anesthetized cynomolgus monkey brain pons after 95 mins postinjection; assay type: ADME, organism-based, Macaca fascicularis; settings: in vivo
[50] = Drug uptake in anesthetized cynomolgus monkey brain frontal lobe after 115 mins postinjection; assay type: ADME, organism-based, Macaca fascicularis; settings: in vivo
Medulla [51] = experiment: Drug uptake in anesthetized cynomolgus monkey brain medulla after 95 mins postinjection; assay type: ADME, organism-based, Macaca fascicularis; settings: in vivo
Caudate [52] = experiment: Drug uptake in anesthetized cynomolgus monkey brain caudate after 65 mins postinjection; assay type: ADME, organism-based, Macaca fascicularis, Caudate nucleus; settings: in vivo
Thalamus [53] = experiment: Drug uptake in anesthetized cynomolgus monkey brain thalamus after 105 mins postinjection; assay type: ADME, organism-based, Macaca fascicularis; design: unit not given here; settings: in vivo, 1.75 h
[54] = Drug uptake in anesthetized cynomolgus monkey brain frontal lobe after 18.5 mins postinjection; assay type: ADME, organism-based, Macaca fascicularis; settings: in vivo
Midbrain [55] = experiment: Drug uptake in anesthetized cynomolgus monkey brain midbrain after 175 mins postinjection; assay type: ADME, organism-based, Macaca fascicularis; settings: in vivo
[56] = Drug uptake in anesthetized cynomolgus monkey brain occipital lobe after 225 mins postinjection; assay type: ADME, organism-based, Macaca fascicularis; settings: in vivo, 3.75 h
Medulla [57] = experiment: Drug uptake in anesthetized cynomolgus monkey brain medulla after 165 mins postinjection; assay type: ADME, organism-based, Macaca fascicularis; settings: in vivo, 2.75 h
Medulla [58] = experiment: Drug uptake in anesthetized cynomolgus monkey brain medulla after 115 mins postinjection; assay type: ADME, organism-based, Macaca fascicularis; settings: in vivo
Caudate [59] = experiment: Drug uptake in anesthetized cynomolgus monkey brain caudate after 95 mins postinjection; assay type: ADME, organism-based, Macaca fascicularis, Caudate nucleus; settings: in vivo
[60] = Drug uptake in anesthetized cynomolgus monkey brain cerebellum after 215 mins postinjection; assay type: ADME, organism-based, Macaca fascicularis; settings: in vivo
Putamen [61] = experiment: Drug uptake in anesthetized cynomolgus monkey brain putamen after 2.5 mins postinjection; assay type: ADME, organism-based, Macaca fascicularis; settings: in vivo
[62] = Drug uptake in anesthetized cynomolgus monkey brain cerebellum after 6.5 mins postinjection; assay type: ADME, organism-based, Macaca fascicularis; settings: in vivo
[63] = Drug uptake in anesthetized cynomolgus monkey brain frontal lobe after 95 mins postinjection; assay type: ADME, organism-based, Macaca fascicularis; settings: in vivo
[64] = Drug uptake in anesthetized cynomolgus monkey brain cerebellum after 135 mins postinjection; assay type: ADME, organism-based, Macaca fascicularis; settings: in vivo, 2.25 h
[65] = Ratio of drug uptake in medulla to cerebellum in anesthetized cynomolgus monkey after 18.5 mins postinjection; assay type: ADME, organism-based, Macaca fascicularis; settings: in vivo
[66] = Drug uptake in anesthetized cynomolgus monkey brain frontal lobe after 75 mins postinjection; assay type: ADME, organism-based, Macaca fascicularis; settings: in vivo, 1.25 h
[67] = Ratio of drug uptake in thalamus to cerebellum in anesthetized cynomolgus monkey after 95 mins postinjection; assay type: ADME, organism-based, Macaca fascicularis; settings: in vivo
[68] = Drug uptake in anesthetized cynomolgus monkey brain cerebellum after 45 mins postinjection; assay type: ADME, organism-based, Macaca fascicularis; settings: in vivo, 0.75 h

For `O=C(OCC[18F])C1C2CCC(CC1c1cccc(/C=C\Br)c1)N2` (stereo not drawn), the Drug uptake (Midbrain [1]) was 0.08, the Drug uptake (Thalamus [2]) was 3.43 and the Ratio [3] was 1.1. For the same compound, the Ratio [4] was 1.8, the Drug uptake (Thalamus [5]) was 2.95 and the Drug uptake [6] was 3.17. For the same compound, the Ratio [7] was 1.2, the Ratio [8] was 1.6 and the Ratio [9] was 0.6. The Drug uptake (Pons [10]) was 4.56, the Drug uptake (Thalamus [11]) was 2.83 and the Ratio [12] was 1.1. For the same compound, the Ratio [13] was 1.4, the Drug uptake (Putamen [14]) was 5.1 and the Drug uptake (Medulla [15]) was 2.67. For the same compound, the Drug uptake [16] was 3.28, the Drug uptake [17] was 2.69 and the Drug uptake (Pons [18]) was 4.51. For the same compound, the Drug uptake (Midbrain [19]) was 5, the Drug uptake [20] was 0.36 and the Ratio [21] was 1.6. It also gave a Drug uptake (Caudate [22]) of 2.8, a Drug uptake (Caudate [23]) of 3.75 and a Ratio [24] of 0.7. For the same compound, the Drug uptake (Caudate [25]) was 3.94, the Drug uptake (Caudate [26]) was 3.22 and the Ratio [27] was 0.8. For the same compound, the Drug uptake (Caudate [28]) was 2.61, the Drug uptake (Caudate [29]) was 4.1 and the Ratio [30] was 3.8. For the same compound, the Drug uptake [31] was 3.84, the Drug uptake [32] was 0 and the Drug uptake (Caudate [33]) was 3.83. For the same compound, the Drug uptake [34] was 2.27, the Drug uptake (Medulla [35]) was 4.2 and the Drug uptake [36] was 2.18. For the same compound, the Ratio [37] was 1.2, the Ratio [38] was 1.5 and the Drug uptake (Midbrain [39]) was 3.91. The Drug uptake (Midbrain [40]) was 4.53, the Drug uptake (Medulla [41]) was 0.61 and the Ratio [42] was 1.1. The Drug uptake [43] was 3.49, the Drug uptake [44] was 2.01 and the Drug uptake (Putamen [45]) was 4.67. For the same compound, the Drug uptake [46] was 3.49, the Drug uptake (Pons [47]) was 4.29 and the Ratio [48] was 1.9. The Drug uptake (Pons [49]) was 4.36, the Drug uptake [50] was 2.69 and the Drug uptake (Medulla [51]) was 4.55. It also gave a Drug uptake (Caudate [52]) of 4.08, a Drug uptake (Thalamus [53]) of 4.23 and a Drug uptake [54] of 2.39. For the same compound, the Drug uptake (Midbrain [55]) was 4.13, the Drug uptake [56] was 1.95 and the Drug uptake (Medulla [57]) was 3.94. It also gave a Drug uptake (Medulla [58]) of 4.28, a Drug uptake (Caudate [59]) of 4.15 and a Drug uptake [60] of 1.78. It also gave a Drug uptake (Putamen [61]) of 0.4, a Drug uptake [62] of 2.75 and a Drug uptake [63] of 2.75. It also gave a Drug uptake [64] of 2.43, a Ratio [65] of 1.2 and a Drug uptake [66] of 2.86. The Ratio [67] was 1.4 and the Drug uptake [68] was 3.76.
